Assay results taken from patent US6720343B2, “Oxadiazole derivatives having anticancer effects” (Shionogi & Co., Ltd., priority 2002, dated 2004).
Like-named read-outs stand apart in the source and are kept apart here.

Columns and labels:
MMP-2 = target: T1, MMP-2 (Homo sapiens, UniProt P08253); assay: Assay for inhibitory activities on MMPs (fluorogenic peptide substrate), MMP-2; type: biochemical
T1 construct: purchased Calbiochem-Novabiochem International, Inc
T1 sequence (P08253 110-660): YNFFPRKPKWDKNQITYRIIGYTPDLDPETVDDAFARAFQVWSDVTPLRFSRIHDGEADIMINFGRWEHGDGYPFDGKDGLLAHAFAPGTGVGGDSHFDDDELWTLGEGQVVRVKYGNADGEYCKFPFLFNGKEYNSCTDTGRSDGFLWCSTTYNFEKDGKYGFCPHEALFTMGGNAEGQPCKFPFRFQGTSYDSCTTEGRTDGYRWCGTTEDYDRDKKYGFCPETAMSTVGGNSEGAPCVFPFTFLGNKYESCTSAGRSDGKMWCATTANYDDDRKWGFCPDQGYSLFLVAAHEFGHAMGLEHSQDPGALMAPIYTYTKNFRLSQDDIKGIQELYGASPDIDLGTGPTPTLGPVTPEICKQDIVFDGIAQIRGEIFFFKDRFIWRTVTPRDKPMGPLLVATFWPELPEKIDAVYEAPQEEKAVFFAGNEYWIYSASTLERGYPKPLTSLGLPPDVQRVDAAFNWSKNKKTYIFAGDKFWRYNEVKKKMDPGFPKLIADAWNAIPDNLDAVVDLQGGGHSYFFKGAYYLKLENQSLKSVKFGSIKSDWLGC
Description: MMP-2 was purchased from Calbiochem-Novabiochem International, Inc.
(§1) The enzymatic activity on MMPs was analyzed by the method described in “C. […] The substrate (MOCAc-Pro-Leu-Gly-Leu-A2Pr(DNP)-Ala-Arg-NH2) was purchased from Peptide Institute, Inc., Osaka, Japan.
(§2) The measurement of the inhibitory activities (IC50) was carried out by the following four methods;
(§3) A) Reaction with substrate, enzyme (MMPs) and inhibitor
(§4) B) Reaction with substrate and inhibitor, without enzyme
(§5) C) Reaction with substrate and enzyme (MMPs), without inhibitor
(§6) D) Reaction with substrate only
(§7) IC50 values were calculated by using the following formula and each fluorescence values of above four methods (A to D).
(§8) % inhibition={1−(A−B)/(C−D)}×100

MMP-9 = target: T2, MMP-9 (Homo sapiens, UniProt P14780); assay: Assay for inhibitory activities on MMPs (fluorogenic peptide substrate), MMP-9; type: biochemical
T2 construct: purchased Calbiochem-Novabiochem International, Inc
Description: MMP-9 was purchased from Calbiochem-Novabiochem International, Inc.
as §1, §2, §3, §4, §5, §6, §7, §8

[1] = tested on: Lewis mouse lung carcinoma cells; assay: Antitumor efficacy using artificial lung metastasis of Lewis mouse lung carcinoma; type: in vivo, BDF1 mice; details: for inhibition in vivo at 20 mg/kg / inhibition in vivo at 200 mg/kg / inhibition in vivo at 2 mg/kg: Mus musculus, po, 336 h, read-out: Inhibition (%)
Description: Lewis mouse lung carcinoma cells (4×10^5 cells) were inoculated into the tail vein of BDF1 mice. […] The doses of the compounds were 20 and 200 mg/kg or 2 and 20 mg/kg. At 14 day after tumor inoculation, tumor nodules formed in the lung of the treated mice were counted and the antitumor efficacy was evaluated.

MMP-8 Catalytic domain = target: T3, MMP-8 Catalytic domain (Homo sapiens, UniProt P22894); assay: Assay for inhibitory activities on MMPs (fluorogenic peptide substrate), MMP-8; type: biochemical
T3 construct: MMP-8 Catalytic domain (^99Phe˜^262Gly); His-tag; Enterokinase digestion site; made in house; host or cells: E. coli
Description: The DNA fragment was cloned into an E. coli expression vector, pTrc99A containing the His-tag sequence and Enterokinase digestion site. The MMP-8 Catalytic domain expression was induced by the addition of IPTG (Isopropyl-β-D-thiogalactopyranoside), and the cell pellet containing MMP-8 Catalytic domain was obtained. […] Isolation of MMP-8 from the cell pellet was used by general techniques. After the cell pellet was dissolved in 6M urea, the solution was loaded onto a metal-chelating matrix. Subsequently, dialysis was used to remove urea and refold of MMP=8. And then active MMP-8 was obtained.
as §1, §2, §3, §4, §5, §6, §7, §8

[2] = experiment 3-1, 20 mg/kg oral, five times, lung tumor nodules at day 14
[3] = experiment 3-1, 200 mg/kg oral, five times, lung tumor nodules at day 14
[4] = experiment 3-2, 20 mg/kg oral, five times, lung tumor nodules at day 14
[5] = experiment 3-2, 200 mg/kg oral, five times, lung tumor nodules at day 14
[6] = experiment 3-3, 2 mg/kg oral, five times, lung tumor nodules at day 14
[7] = experiment 3-3, 20 mg/kg oral, five times, lung tumor nodules at day 14

T3 sequence (P22894 99-262): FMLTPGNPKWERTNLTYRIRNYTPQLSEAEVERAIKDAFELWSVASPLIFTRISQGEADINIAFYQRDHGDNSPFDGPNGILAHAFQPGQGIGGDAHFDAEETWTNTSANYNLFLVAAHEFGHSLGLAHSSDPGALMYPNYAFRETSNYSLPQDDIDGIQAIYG
T2 sequence (P14780 94-707): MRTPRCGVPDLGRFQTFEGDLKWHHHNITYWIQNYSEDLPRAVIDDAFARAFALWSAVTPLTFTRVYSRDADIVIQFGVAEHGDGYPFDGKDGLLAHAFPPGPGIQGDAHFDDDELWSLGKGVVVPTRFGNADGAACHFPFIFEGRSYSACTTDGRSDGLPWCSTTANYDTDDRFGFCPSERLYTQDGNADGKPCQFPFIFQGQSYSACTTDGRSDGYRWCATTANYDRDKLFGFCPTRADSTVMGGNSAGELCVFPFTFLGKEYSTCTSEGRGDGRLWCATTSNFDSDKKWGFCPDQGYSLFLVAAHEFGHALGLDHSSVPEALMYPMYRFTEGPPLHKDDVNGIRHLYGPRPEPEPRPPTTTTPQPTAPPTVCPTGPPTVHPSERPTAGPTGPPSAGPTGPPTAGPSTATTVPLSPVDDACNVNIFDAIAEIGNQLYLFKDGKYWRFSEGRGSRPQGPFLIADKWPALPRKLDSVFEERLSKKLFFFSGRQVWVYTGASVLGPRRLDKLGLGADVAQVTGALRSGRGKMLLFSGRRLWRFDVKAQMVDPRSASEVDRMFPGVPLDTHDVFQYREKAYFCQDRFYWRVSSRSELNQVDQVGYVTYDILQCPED

| Structure (SMILES) | IC50 (MMP-2) [nM] | IC50 (MMP-9) [nM] | inhibition in vivo at 20 mg/kg [1, 2] [%] | inhibition in vivo at 200 mg/kg [1, 3] [%] | Number of colonies (Mean ± SD) [1, 2] | Number of colonies (Mean ± SD) [1, 3] | melting point [°C] | IC50 (MMP-8 Catalytic domain) [nM] | inhibition in vivo at 20 mg/kg [1] [%] | inhibition in vivo at 200 mg/kg [1] [%] | inhibition in vivo at 20 mg/kg [1, 4] [%] | inhibition in vivo at 200 mg/kg [1, 5] [%] | Number of colonies (Mean ± SD) [1, 4] | Number of colonies (Mean ± SD) [1, 5] | inhibition in vivo at 2 mg/kg [1] [%] | Number of colonies (Mean ± SD) [1, 6] | Number of colonies (Mean ± SD) [1, 7] | inhibition in vivo at 2 mg/kg [1, 6] [%] | inhibition in vivo at 20 mg/kg [1, 7] [%] |
| --- | --- | --- | --- | --- | --- | --- | --- | --- | --- | --- | --- | --- | --- | --- | --- | --- | --- | --- | --- |
| Cc1ccc(-c2noc(-c3ccc(S(=O)(=O)N[C@H](C)C(=O)O)cc3)n2)cc1 [Compound A-1] | 30 | 470 | 53 | 69 | 20.2 ± 13.3 | 13.3 ± 11.8 | 200 to 203 | > 1000 |  |  |  |  |  |  |  |  |  |  |  |
| O=C(O)[C@@H](Cc1ccccc1)NS(=O)(=O)c1ccc(-c2nc(-c3ccccc3)no2)cc1 [Compound A-2] | 53 | > 1000 |  |  |  |  | 221 to 222 | > 1000 |  |  |  |  |  |  |  |  |  |  |  |
| Cc1ccc(-c2noc(-c3ccc(S(=O)(=O)N[C@H](Cc4ccccc4)C(=O)O)cc3)n2)cc1 [Compound A-3] | 15 | 384 |  |  |  |  |  | 775 |  |  |  |  |  |  |  |  |  |  |  |
| C[C@@H](NS(=O)(=O)c1ccc(-c2nc(-c3ccc(Cl)cc3)no2)cc1)C(=O)O [Compound A-4] | 26 | 190 |  |  | 19.2 ± 9.4 | 23.3 ± 12.8 |  | > 1000 | 55 | 46 |  |  |  |  |  |  |  |  |  |
| CC(C)[C@@H](NS(=O)(=O)c1ccc(-c2nc(-c3cccs3)no2)cc1)C(=O)O [Compound A-5] | 30 | > 1000 |  |  |  |  |  | 610 |  |  | 24 | 37 | 41.8 ± 22.5 | 34.8 ± 12.1 |  |  |  |  |  |
| C[C@@H](NS(=O)(=O)c1ccc(-c2nc(-c3ccc(F)cc3)no2)cc1)C(=O)O [Compound A-6] | 50 | > 1000 |  |  |  |  |  | > 1000 |  |  | 26 | 57 | 40.8 ± 13.5 | 24.0 ± 9.7 |  |  |  |  |  |
| CCc1ccc(-c2noc(-c3ccc(S(=O)(=O)N[C@H](Cc4ccccc4)C(=O)O)cc3)n2)cc1 [Compound A-7] | 8 | 78 | 56 | 49 | 18.8 ± 6.9 | 21.7 ± 9.6 |  | > 1000 |  |  |  |  |  |  |  |  |  |  |  |
| Cc1ccc(-c2noc(-c3ccc(S(=O)(=O)N[C@@H](Cc4ccccc4)C(=O)O)cc3)n2)cc1 [Compound A-8] | 51 | 479 |  |  | 18.8 ± 11.4 | 15.7 ± 5.5 |  | > 1000 | 56 | 63 |  |  |  |  |  |  |  |  |  |
| O=C(O)[C@@H](Cc1c[nH]c2ccccc12)NS(=O)(=O)c1ccc(-c2nc(-c3ccccc3)no2)cc1 [Compound A-9] | 18 | 566 |  |  |  |  |  | > 1000 |  |  | 30 | 51 | 38.7 ± 5.8 | 27.0 ± 9.7 |  |  |  |  |  |
| C[C@@H](NS(=O)(=O)c1ccc(-c2nc(-c3ccccc3)no2)cc1)C(=O)O [Compound A-10] | 65 | > 1000 | 43 | 41 | 24.5 ± 7.8 | 25.2 ± 17.0 |  | > 1000 |  |  |  |  |  |  |  |  |  |  |  |
| Cc1ccc(-c2noc(-c3ccc(S(=O)(=O)N[C@@H](C(=O)O)C(C)C)cc3)n2)s1 [Compound A-93] | 6 | 47 |  |  |  |  |  | 88 | 50 |  |  |  |  |  | 41 | 36.3 ± 9.2 | 30.8 ± 10.8 |  |  |
| O=C(O)[C@@H](Cc1c[nH]c2ccccc12)NSOOc1ccc(-c2nnn(-c3ccccc3)n2)cc1 [Compound B-1, reference compound] |  |  | 38 | 46 | 26.5 ± 19.5 | 23.0 ± 7.6 |  |  |  |  | 37 | 31 | 34.8 ± 14.5 | 38.3 ± 20.7 |  | 53.5 ± 18.5 | 37.5 ± 13.0 | 14 | 39 |
